Laboratory results published in patent US20260200890A1, “ADAR1 INHIBITORS AND METHODS OF USING THE SAME” (AVAMMUNE THERAPEUTICS INC., priority 2022, published 2026).

These compounds were tested against T1, ADAR1 (Homo sapiens, UniProt P55265) (assay: ADAR1 Inhibition Assay (IFN fold-induction, Quanti-Luc luminescence, p110 KO A549 dual cells)). Conditions: IFN fold-induction vs DMSO, 24 and 48 h.
T1 construct: endogenous in cells; host or cells: p110 KO A549 dual cells
T1 sequence (P55265 1-1226): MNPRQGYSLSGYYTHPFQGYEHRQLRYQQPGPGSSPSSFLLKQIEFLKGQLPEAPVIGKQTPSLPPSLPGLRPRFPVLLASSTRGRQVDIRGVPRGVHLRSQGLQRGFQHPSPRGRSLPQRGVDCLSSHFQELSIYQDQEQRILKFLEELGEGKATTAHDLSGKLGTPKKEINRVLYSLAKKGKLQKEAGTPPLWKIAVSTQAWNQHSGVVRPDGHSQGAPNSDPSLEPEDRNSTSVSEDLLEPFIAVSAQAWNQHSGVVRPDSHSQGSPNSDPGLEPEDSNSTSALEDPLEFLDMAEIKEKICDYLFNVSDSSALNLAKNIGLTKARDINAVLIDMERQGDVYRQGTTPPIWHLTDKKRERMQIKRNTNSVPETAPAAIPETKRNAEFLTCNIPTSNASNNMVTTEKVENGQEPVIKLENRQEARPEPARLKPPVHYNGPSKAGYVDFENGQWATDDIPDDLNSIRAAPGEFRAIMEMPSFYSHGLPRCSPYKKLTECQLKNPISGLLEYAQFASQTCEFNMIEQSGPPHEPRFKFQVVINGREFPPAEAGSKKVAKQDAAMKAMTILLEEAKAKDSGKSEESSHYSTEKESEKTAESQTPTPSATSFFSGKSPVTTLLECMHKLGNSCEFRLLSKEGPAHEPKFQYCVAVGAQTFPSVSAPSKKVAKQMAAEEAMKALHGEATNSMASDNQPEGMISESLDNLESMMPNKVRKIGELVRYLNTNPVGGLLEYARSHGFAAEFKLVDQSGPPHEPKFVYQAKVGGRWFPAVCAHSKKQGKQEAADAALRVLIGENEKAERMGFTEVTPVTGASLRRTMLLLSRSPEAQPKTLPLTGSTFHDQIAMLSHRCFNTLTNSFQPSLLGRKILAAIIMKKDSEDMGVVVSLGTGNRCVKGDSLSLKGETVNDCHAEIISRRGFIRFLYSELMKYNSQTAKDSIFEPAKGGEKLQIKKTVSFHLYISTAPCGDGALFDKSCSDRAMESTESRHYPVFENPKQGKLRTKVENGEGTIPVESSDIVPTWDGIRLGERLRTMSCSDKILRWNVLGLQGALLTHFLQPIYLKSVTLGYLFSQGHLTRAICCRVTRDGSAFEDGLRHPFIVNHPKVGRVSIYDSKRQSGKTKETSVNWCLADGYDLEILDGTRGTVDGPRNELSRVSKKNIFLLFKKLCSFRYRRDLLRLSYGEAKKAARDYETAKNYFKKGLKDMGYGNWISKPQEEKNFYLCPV
Assay type: cell-based
How it was run: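 p110 KO A549 dual cells (20,000/well) in supplemented DMEM, treated next day with compound at 1% final DMSO for 24 and 48 h at 37 °C, 5% CO2. Supernatant luminescence read with Quanti-Luc; IFN fold-induction = sample RLU/mean DMSO RLU, used for EC50.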

CCOC(=O)c1cc(-c2ccccc2)ncc1NC(=O)C1CCN(C(=O)c2cccc(NS(C)(=O)=O)c2)C1 (stereo not shown) [Compound 210] and CCOC(=O)c1cc(-c2ccccc2)sc1NC(=O)C1CN(C(=O)c2cccc(NS(C)(=O)=O)c2)CCO1 (stereo not shown) [Compound 224] cannot be ordered by EC50: greater than 100 µM for the first, greater than 100 µM for the second.

CCOC(=O)c1cc(-c2cccc(OC)c2)sc1NC(=O)COC(=O)c1cccc(NS(C)(=O)=O)c1 [Compound 211] and CCOC(=O)c1cc(-c2cccc(C#N)c2)sc1NC(=O)COC(=O)c1cccc(NS(C)(=O)=O)c1 [Compound 212] cannot be ordered by EC50: greater than 100 µM for the first, greater than 100 µM for the second.

CCOC(=O)c1cc(-c2ccc(N(C)C)cc2)sc1NC(=O)COC(=O)c1cccc(NS(C)(=O)=O)c1 [Compound 213] and CCOC(=O)c1cc(-c2ccc(O)cc2)sc1NC(=O)COC(=O)c1cccc(NS(C)(=O)=O)c1 [Compound 218] cannot be ordered by EC50: greater than 100 µM for the first, greater than 100 µM for the second.

CCOC(=O)c1c(-c2ccccc2)noc1NC(=O)COC(=O)c1cccc(NS(C)(=O)=O)c1 [Compound 214] and CCOC(=O)c1cnc(NC(=O)COC(=O)c2cccc(NS(C)(=O)=O)c2)c(-c2ccccc2)c1 [Compound 254] cannot be ordered by EC50: greater than 100 µM for the first, greater than 100 µM for the second.

CCOC(=O)c1cc(-c2ccccc2)sc1NC(=O)Cn1cnc2cnc(N)nc21 [Compound 215] and CCOC(=O)c1cc(-c2ccccc2)sc1NC(=O)Cn1cnc2cnc(NS(C)(=O)=O)nc21 [Compound 225] cannot be ordered by EC50: greater than 100 µM for the first, greater than 100 µM for the second.

CCOC(=O)c1cc(-c2ccccc2)sc1NC(=O)Cc1nc(-c2cccc(NS(C)(=O)=O)c2)no1 [Compound 216] and CCOC(=O)c1cc(-c2ccccc2)sc1NC(=O)c1nc(-c2cccc(NS(C)(=O)=O)c2)no1 [Compound 255] cannot be ordered by EC50: greater than 100 µM for the first, greater than 100 µM for the second.

CON(C)C(=O)c1cc(-c2ccccc2)sc1NC(=O)COC(=O)c1cccc(NS(C)(=O)=O)c1 [Compound 217] and CCOC(=O)c1cc(-c2ccccc2)sc1NC(=O)CCOC(=O)c1cccc(NS(C)(=O)=O)c1 [Compound 229] cannot be ordered by EC50: greater than 100 µM for the first, greater than 100 µM for the second.

Compared with CCOC(=O)c1cc(-c2ccccc2)sc1NC(=O)c1nnc(-c2cccc(NS(C)(=O)=O)c2)o1 [Compound 219], CCOC(=O)c1cc(-c2ccccc2)sc1NC(=O)c1coc(-c2cccc(NS(C)(=O)=O)c2)n1 [Compound 244] is higher in EC50: no more than 25 µM for the first, greater than 100 µM for the second. The first is the more potent here.

CS(=O)(=O)Nc1cccc(C(=O)OCC(=O)N2CCN(c3ccccc3)C2=S)c1 [Compound 221] and CS(=O)(=O)Nc1cccc(C(=O)OCC(=O)Nc2cc(-c3ccccc3)[nH]n2)c1 [Compound 265] cannot be ordered by EC50: greater than 100 µM for the first, greater than 100 µM for the second.

CCOC(=O)c1cc(-c2ccccc2)sc1NC(=O)c1nnc(-c2cccc(NS(C)(=O)=O)c2)s1 [Compound 222] and CCOC(=O)c1cc(-c2ccccc2)sc1NC(=O)c1cnc(-c2cccc(NS(C)(=O)=O)c2)s1 [Compound 246] cannot be ordered by EC50: greater than 100 µM for the first, greater than 100 µM for the second.

CS(=O)(=O)Nc1cccc(C(=O)OCC(=O)Nc2sc(-c3ccccc3)cc2C(=O)OCCOCc2ccccc2)c1 [Compound 223] and CCOC(=O)c1cc(-c2ccccc2)sc1NC(=O)COC(=O)c1cccc(NS(=O)(=O)C(F)(F)F)c1 [Compound 257] cannot be ordered by EC50: greater than 100 µM for the first, greater than 100 µM for the second.

CCOC(=O)c1cc(-c2ccc(C(=O)O)cc2)sc1NC(=O)COC(=O)c1cccc(NS(C)(=O)=O)c1 [Compound 226] and CCOC(=O)c1cc(-c2ccccc2)sc1NC(=O)COC(=O)c1cccc(C(=O)NS(C)(=O)=O)c1 [Compound 256] cannot be ordered by EC50: greater than 100 µM for the first, greater than 100 µM for the second.

CCOC(=O)c1cc(-c2ccccc2)sc1NC(=O)C1CCN(S(=O)(=O)c2cccc(NS(C)(=O)=O)c2)C1 (stereo not shown) [Compound 227] and CCOC(=O)c1cc(-c2ccccc2)sc1NC(=O)CNS(=O)(=O)c1cccc(NS(C)(=O)=O)c1 [Compound 232] cannot be ordered by EC50: greater than 100 µM for the first, greater than 100 µM for the second.

CCOC(=O)c1cc(C2CC2)sc1NC(=O)COC(=O)c1cccc(NS(C)(=O)=O)c1 [Compound 230] and CCOC(=O)c1cccc2nc(NC(=O)COC(=O)c3cccc(NS(C)(=O)=O)c3)sc12 [Compound 236] cannot be ordered by EC50: greater than 100 µM for the first, greater than 100 µM for the second.

CCOC(=O)c1cc(-c2ccccc2)sc1NC(=O)C(C)(C)Nc1cccc(NS(C)(=O)=O)c1 [Compound 231] and CCOC(=O)c1cc(-c2ccccc2)sc1NC(=O)COC(C)c1cccc(NS(C)(=O)=O)c1 (stereo not shown) [Compound 240] cannot be ordered by EC50: greater than 100 µM for the first, greater than 100 µM for the second.

CCOC(=O)c1cc(-c2ccccc2)sc1N1C(=O)N(c2cccc(NS(C)(=O)=O)c2)C(C)(C)C1=O [Compound 233] and CCOC(=O)c1cc(-c2ccccc2)sc1NC(=O)c1nncn1-c1cccc(NS(C)(=O)=O)c1 [Compound 272] cannot be ordered by EC50: greater than 100 µM for the first, greater than 100 µM for the second.

CCOC(=O)c1cc(-c2ccccc2)sc1NC(=O)CN1C(=O)c2ccc(NS(C)(=O)=O)cc2C1=O [Compound 234] and CCOC(=O)c1cc(-c2ccccc2)sc1NC(=O)Cn1ncc2ccc(NS(C)(=O)=O)cc21 [Compound 242] cannot be ordered by EC50: greater than 100 µM for the first, greater than 100 µM for the second.

CCOc1nc(NC(=O)COC(=O)c2cccc(NS(C)(=O)=O)c2)ncc1-c1ccccc1 [Compound 235] and CCOC(=O)c1cc(NC(=O)COC(=O)c2cccc(NS(C)(=O)=O)c2)ncc1-c1ccccc1 [Compound 249] cannot be ordered by EC50: greater than 100 µM for the first, greater than 100 µM for the second.

CCOC(=O)c1cc(-c2ccccc2)sc1NC(=O)CCN(C(C)=O)c1cccc(N(C(C)=O)S(C)(=O)=O)c1 [Compound 237] and CCOC(=O)c1cc(-c2ccccc2)sc1NC(=O)NNC(=O)c1cccc(NS(C)(=O)=O)c1 [Compound 262] cannot be ordered by EC50: greater than 100 µM for the first, greater than 100 µM for the second.

CCOC(=O)c1cc(-c2ccccc2)sc1NC(=O)CN1C(=O)CN(C(=O)c2cccc(NS(C)(=O)=O)c2)C1=O [Compound 238] and CCOC(=O)c1cc(-c2ccccc2)sc1NC(=O)CN1C(=O)CN(S(C)(=O)=O)C1=O [Compound 239] cannot be ordered by EC50: greater than 100 µM for the first, greater than 100 µM for the second.

CCOC(=O)c1c(NC(=O)COC(=O)c2cccc(NS(C)(=O)=O)c2)sc2ccccc12 [Compound 243] and CCOC(=O)c1cc(NC(=O)COC(=O)c2cccc(NS(C)(=O)=O)c2)sc1-c1ccccc1 [Compound 247] cannot be ordered by EC50: greater than 100 µM for the first, greater than 100 µM for the second.

CCOC(=O)c1nc(-c2ccccc2)ccc1NC(=O)COC(=O)c1cccc(NS(C)(=O)=O)c1 [Compound 245] and CCOC(=O)c1cc(-c2ccccc2)cnc1NC(=O)COC(=O)c1cccc(NS(C)(=O)=O)c1 [Compound 260] cannot be ordered by EC50: greater than 100 µM for the first, greater than 100 µM for the second.

CCOC(=O)c1cc(-c2ccccc2)sc1NC(=O)c1cnc(-c2cccc(NS(C)(=O)=O)c2)o1 [Compound 248] and CCOC(=O)c1cc(-c2ccccc2)sc1NC(=O)c1ccc(-c2cccc(NS(C)(=O)=O)c2)o1 [Compound 268] cannot be ordered by EC50: greater than 100 µM for the first, greater than 100 µM for the second.

CCOC(=O)c1cc(-c2ccccc2)sc1NC(=O)COC(c1cccc(NS(C)(=O)=O)c1)C(F)(F)F (stereo not shown) [Compound 250] and CCOC(=O)c1cc(-c2ccccc2)sc1NC(=O)c1cc(-c2cccc(NS(C)(=O)=O)c2)ncn1 [Compound 261] cannot be ordered by EC50: greater than 100 µM for the first, greater than 100 µM for the second.

CCOC(=O)c1c(NC(=O)COC(=O)c2cccc(NS(C)(=O)=O)c2)sc(-c2ccccc2)c1C(=O)OCC [Compound 251] and CCOC(=O)c1cc(NC(=O)c2ccccc2)sc1NC(=O)COC(=O)c1cccc(NS(C)(=O)=O)c1 [Compound 263] cannot be ordered by EC50: greater than 100 µM for the first, greater than 100 µM for the second.

CCOC(=O)c1cc(-c2ccccc2)sc1NC(=O)c1cccc(-c2cccc(NS(C)(=O)=O)c2)c1 [Compound 252] and CCOC(=O)c1cc(-c2ccccc2)sc1NC(=O)c1cncc(-c2cccc(NS(C)(=O)=O)c2)n1 [Compound 264] cannot be ordered by EC50: greater than 100 µM for the first, greater than 100 µM for the second.

COC(=O)c1nc(-c2ccccc2)cnc1NC(=O)COC(=O)c1cccc(NS(C)(=O)=O)c1 [Compound 258] and CS(=O)(=O)Nc1cccc(C(=O)OCC(=O)Nc2ncc(-c3ccccc3)cc2CO)c1 [Compound 259] cannot be ordered by EC50: greater than 100 µM for the first, greater than 100 µM for the second.

CCOC(=O)c1cc(-c2ccc(C(=O)Nc3cccc(NS(C)(=O)=O)c3)cc2)sc1NC(C)=O [Compound 266] and CCOC(=O)c1cc(-c2ccccc2)sc1NC(=O)Oc1ccc(NS(C)(=O)=O)cc1 [Compound 267] cannot be ordered by EC50: greater than 100 µM for the first, greater than 100 µM for the second.

CS(=O)(=O)Nc1cccc(NC(=O)c2cc(-c3ccccc3)sc2N)c1 [Compound 269] and CS(=O)(=O)Nc1cccc(C(=O)OCCNC(=O)c2csc(-c3ccccc3)c2)c1 [Compound 271] cannot be ordered by EC50: greater than 100 µM for the first, greater than 100 µM for the second.
